Test results: PMC4727946 (The Journal of General Physiology, 2016)
Blank lines part the entries; values can stand above or below the molecule they belong to.

Assays:
Format in all cases: cell-based
[1] = target: T1, Pannexin1 (Panx1) (Homo sapiens, UniProt Q96RD7); assay: whole-cell patch clamp in transfected HEK293 cells
[2] = target: T1, Pannexin1 (Panx1); assay: whole-cell patch clamp in transfected HEK293 cells; remark: listed apart in the source
[3] = target: T1, Pannexin1 (Panx1); assay: whole-cell patch clamp of Panx1-transfected HEK293 cells, dose response

T1 sequence (Q96RD7 whole entry): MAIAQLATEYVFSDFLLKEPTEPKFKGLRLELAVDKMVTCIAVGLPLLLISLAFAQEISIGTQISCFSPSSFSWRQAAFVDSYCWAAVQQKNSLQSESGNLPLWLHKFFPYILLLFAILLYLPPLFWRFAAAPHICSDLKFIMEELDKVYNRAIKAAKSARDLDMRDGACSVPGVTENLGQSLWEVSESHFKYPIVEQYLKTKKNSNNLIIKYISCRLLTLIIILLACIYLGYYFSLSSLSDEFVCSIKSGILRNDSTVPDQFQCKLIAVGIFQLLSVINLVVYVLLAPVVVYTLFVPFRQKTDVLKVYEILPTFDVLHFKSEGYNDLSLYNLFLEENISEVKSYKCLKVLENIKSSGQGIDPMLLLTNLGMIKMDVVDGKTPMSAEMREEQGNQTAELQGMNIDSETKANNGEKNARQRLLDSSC

SMILES: CCCN(CCC)S(=O)(=O)c1ccc(C(=O)O)cc1 [probenecid]
- whole-cell patch clamp in transfected HEK293 cells (3 mM and 10 mM) [1]: suggesting that binding of probenecid trapped Panx1 in a nonresting closed conformation

SMILES: COc1ccc(Cl)cc1C(=O)NCCc1ccc(S(=O)(=O)NC(=O)NC2CCCCC2)cc1 [glybenclamide]
- whole-cell patch clamp in transfected HEK293 cells (150 μM) [2]: W74 is essential not only for CBX, but also for the other four Panx1 inhibitors to function

- IC50 [3]: ~2000 nM
SMILES: CC1(C)[C@@H](OC(=O)CCC(=O)O)CC[C@]2(C)[C@H]3C(=O)C=C4[C@@H]5C[C@@](C)(C(=O)O)CC[C@]5(C)CC[C@@]4(C)[C@]3(C)CC[C@@H]12 [carbenoxolone]
